In US6150524A, “Morphine derivatives with analgesic activity” (priority 1995, dated 2000):
Where a name gives a salt, the structure may show the parent alone. Read-outs that look alike come from different tables or passages of the source.

Test system: mice
Assay: Haffner test ("Tail clip test") in mice
Format: in vivo, mouse (male CD mice)
Conditions: Mus musculus, read-out: ED50 (Haffner test in mice)
From the text: METHOD: Haffner Test ("Tail clip test") in Mice
The Haffner test is a standard procedure for determining the pain-inhibiting effect of powerful analgesics, mostly of the opioid type, in mice. The method largely corresponds to the one described by Bianchi C. and Franceschini J. (Brit. J. Pharmacol. 9:280, 1954; Experimental observations on Haffner's method for testing analgesic drugs).
Male CD mice (from Charles River, Sulzfeld, FRG) with an average weight of 30±5 grams were used. The animals were kept under standard conditions (temperature: 22±2° C., relative humidity: 55±10%, air exchange: 15-20 times per hour and 12/12 hours light/darkness cycle). The animals had unlimited access to food and water until the test began. During the test the animals were kept singly in Makrolon Type III cages with no bedding. A 3.5 cm arterial clamp was placed about 2 cm from the base of the tail and the pain reaction time was measured in seconds. Any active attempt by the animal to remove the clamp was assessed as a pain reaction. To prevent tissue damage, the test was stopped after at most 30 seconds in every case (cut off latency). In a preliminary test, mice with a pain reaction time of less than 5 seconds (base line latency) were selected for the actual test, which was carried out at specific intervals after the administration of the drug (test latency).
Corresponding quantities of test substances were dissolved in physiological saline solution for intravenous administration or in twice distilled water for oral administration. The total volume administered was 10 ml/kg of body weight in each case. Controls were given the same solvent but with no test substance. 8-10 mice were tested in each group.
The results were plotted as individual values (seconds), mean value±scattering (seconds) per group and as the percent of the maximum possible effect (% MPE=percent of Maximum Possible Effect). [formula] Significant differences between the control and test groups were calculated by means of an unpaired, two-sided Students T-test (*2P<0.05;**2P<0.01; 2P<0.001).
The ED50 value describes the dosage at which 50% of the maximum possible effect (MPE) is achieved. The ED50 value is calculated by linear regression between the dose and the % MPE.

SMILES	ED50 (po, 0.5 h, p.o., 30 min.)	ED50 (po, 1 h, p.o., 60 min.)	ED50 (po, 2 h, p.o., 120 min.)	ED50 (po, 3 h, p.o., 180 min.)	ED50 (iv, 10 min, i.v., 10 min.)	ED50 (iv, 0.5 h, i.v., 30 min.)	ED50 (iv, 1 h, i.v., 60 min.)	ED50 (iv, 2 h, i.v., 120 min.)	ED50 (iv, 10 min)	ED50 (iv, 0.5 h)	ED50 (iv, 1 h)	ED50 (iv, 2 h)	ED50 (po, 0.5 h)	ED50 (po, 1 h)	ED50 (po, 2 h)	ED50 (po, 3 h)
CN1CC[C@]23c4c5ccc(O)c4O[C@H]2[C@@H](OCCCO)C=C[C@H]3[C@H]1C5 [Example 39]	0.027 µmol/kg	0.035 µmol/kg	0.149 µmol/kg	0.283 µmol/kg	–	–	–	–	–	–	–	–	–	–	–	–
CN1CC[C@]23c4c5ccc(O)c4O[C@H]2[C@@H](OCCCCC#N)C=C[C@H]3[C@H]1C5 [Example 27]	0.059 µmol/kg	0.073 µmol/kg	0.108 µmol/kg	0.178 µmol/kg	0.0059 µmol/kg	0.0073 µmol/kg	0.0154 µmol/kg	0.038 µmol/kg	–	–	–	–	–	–	–	–
CCCC(COC1C=CC2C3Cc4ccc(O)c5c4C2(CCN3C)C1O5)OC(C)=O (centres unmarked) [Example 32]	0.068 µmol/kg	0.12 µmol/kg	0.154 µmol/kg	0.232 µmol/kg	0.001 µmol/kg	0.003 µmol/kg	0.0099 µmol/kg	0.024 µmol/kg	–	–	–	–	–	–	–	–
CCOC(=O)CCCCCO[C@H]1C=C[C@H]2[C@H]3Cc4ccc(O)c5c4[C@@]2(CCN3C)[C@H]1O5 [Example 22]	0.055 µmol/kg	0.09 µmol/kg	0.096 µmol/kg	0.086 µmol/kg	0.003 µmol/kg	0.0037 µmol/kg	0.01 µmol/kg	0.012 µmol/kg	–	–	–	–	–	–	–	–
CN1CC[C@]23c4c5ccc(O)c4O[C@H]2[C@@H](O)C=C[C@H]3[C@H]1C5 [Morphine.HCl, reference compound]	–	–	–	–	–	–	–	–	0.017 µmol/kg	0.019 µmol/kg	0.021 µmol/kg	0.037 µmol/kg	0.279 µmol/kg	0.296 µmol/kg	0.539 µmol/kg	0.718 µmol/kg
COC(=O)CCCCC(=O)O[C@H]1C=C[C@H]2[C@H]3Cc4ccc(O)c5c4[C@@]2(CCN3C)[C@H]1O5 [Example 20]	0.118 µmol/kg	0.12 µmol/kg	0.17 µmol/kg	0.234 µmol/kg	0.0037 µmol/kg	0.0051 µmol/kg	0.011 µmol/kg	0.015 µmol/kg	–	–	–	–	–	–	–	–
CC(=O)OCCCO[C@H]1C=C[C@H]2[C@H]3Cc4ccc(O)c5c4[C@@]2(CCN3C)[C@H]1O5 [Example 38]	0.023 µmol/kg	0.027 µmol/kg	0.035 µmol/kg	0.043 µmol/kg	0.0003 µmol/kg	0.0019 µmol/kg	0.0036 µmol/kg	0.079 µmol/kg	–	–	–	–	–	–	–	–
CCOC(=O)CCCCO[C@H]1C=C[C@H]2[C@H]3Cc4ccc(O)c5c4[C@@]2(CCN3C)[C@H]1O5 [Example 25]	0.0201 µmol/kg	0.028 µmol/kg	0.031 µmol/kg	0.037 µmol/kg	0.0011 µmol/kg	0.0057 µmol/kg	0.0112 µmol/kg	0.0129 µmol/kg	–	–	–	–	–	–	–	–
COC(=O)CCCCCCC(=O)O[C@H]1C=C[C@H]2[C@H]3Cc4ccc(O)c5c4[C@@]2(CCN3C)[C@H]1O5 [Example 22, 4,5α-Epoxy-6α-((6-methoxycarbonyl-hexylcarbonyl)-oxy)-17-methyl-morphinan-7-en-3-ol]	0.109 µmol/kg	0.208 µmol/kg	0.298 µmol/kg	0.315 µmol/kg	0.0025 µmol/kg	0.0033 µmol/kg	0.005 µmol/kg	0.022 µmol/kg	–	–	–	–	–	–	–	–
COc1ccc(CCCC(=O)O[C@H]2C=C[C@H]3[C@H]4Cc5ccc(O)c6c5[C@@]3(CCN4C)[C@H]2O6)cc1 [Example 19]	0.084 µmol/kg	0.107 µmol/kg	0.128 µmol/kg	0.178 µmol/kg	0.002 µmol/kg	0.0025 µmol/kg	0.0033 µmol/kg	0.0056 µmol/kg	–	–	–	–	–	–	–	–
CCCC(O)CO[C@H]1C=C[C@H]2[C@H]3Cc4ccc(O)c5c4[C@@]2(CCN3C)[C@H]1O5 (some centres unmarked) [Example 33]	0.029 µmol/kg	0.037 µmol/kg	0.051 µmol/kg	0.069 µmol/kg	0.0019 µmol/kg	0.0046 µmol/kg	0.0083 µmol/kg	0.021 µmol/kg	–	–	–	–	–	–	–	–
COC(=O)c1ccc(CO[C@H]2C=C[C@H]3[C@H]4Cc5ccc(O)c6c5[C@@]3(CCN4C)[C@H]2O6)cc1 [Example 5]	0.06 µmol/kg	0.068 µmol/kg	0.072 µmol/kg	0.09 µmol/kg	0.0008 µmol/kg	0.0008 µmol/kg	0.0032 µmol/kg	0.0095 µmol/kg	–	–	–	–	–	–	–	–
CN1CC[C@]23c4c5ccc(O)c4O[C@H]2[C@@H](OCCCCOC(=O)c2ccccc2)C=C[C@H]3[C@H]1C5 [Example 4]	0.035 µmol/kg	0.046 µmol/kg	0.058 µmol/kg	0.069 µmol/kg	0.0004 µmol/kg	0.0031 µmol/kg	0.0119 µmol/kg	0.0217 µmol/kg	–	–	–	–	–	–	–	–
CN1CC[C@]23c4c5ccc(O)c4O[C@H]2[C@@H](OCCCCOC(=O)C(C)(C)C)C=C[C@H]3[C@H]1C5 [Example 6]	0.058 µmol/kg	0.108 µmol/kg	0.12 µmol/kg	0.132 µmol/kg	0.0005 µmol/kg	0.0026 µmol/kg	0.0114 µmol/kg	0.029 µmol/kg	–	–	–	–	–	–	–	–
CN1CC[C@]23c4c5ccc(O)c4O[C@H]2[C@@H](OC(=O)C(C)(O)C(F)(F)F)C=C[C@H]3[C@H]1C5 (some centres unmarked) [Example 11]	0.148 µmol/kg	0.172 µmol/kg	0.256 µmol/kg	0.269 µmol/kg	0.0056 µmol/kg	0.007 µmol/kg	0.013 µmol/kg	0.019 µmol/kg	–	–	–	–	–	–	–	–
COC(=O)CCCCC(=O)O[C@H]1CC[C@H]2[C@H]3Cc4ccc(O)c5c4[C@@]2(CCN3C)[C@H]1O5 [Example 4, 4,5α-Epoxy-6α-((5-methoxycarbonyl-valeryl)-oxy)-17-methyl-morphinan-3-ol acetate]	0.039 µmol/kg	0.044 µmol/kg	0.073 µmol/kg	0.189 µmol/kg	–	–	–	–	–	–	–	–	–	–	–	–
